The text below walks through data of patent US20040052728A1, “Diagnostic imaging” (priority 1998, published 2004).

SMILES strings stand for the structures. Where two headings read alike, the source gives them in different places.

Series [1] relates to myocardium. The series can be described thus: Open chest ultrasound imaging of the heart with contrast agent, then adenosine bolus. The class given is in vivo, dog. Here is the method:
A midline sternotomy was performed on an anaesthetised 20 kg mongrel dog and the anterior pericardium was removed. A short axis view of the heart was imaged with an ATL HDI-3000 scanner, using a P5-3 transducer in harmonic mode; a 30 mm silicone rubber spacer having low ultrasound attenuation was placed between the transducer and the anterior surface of the heart. ECG gating was used so as to acquire one image in each end-systole.
(§1) In order to analyse ultrasound images obtained according to the procedure of Example 1, the images were first converted from video images into grey level digital images (640×480 pixels) using a frame grabber. A fixed central region (399×399 pixels) covering the image sector was selected for further processing. The thus-obtained images were decimated by averaging 3×3 pixels into new images (133×133 pixels) and were then median filtered using a sliding region (5×5 pixels).
(§2) A single image obtained just before onset of adenosine-induced vasodilatation was selected as a geometrical template to which all other images were automatically adjusted to maximum pixel correlation by an affine transformation (6 degrees of freedom). Only pixels within a region of interest in the template image encompassing the left ventricle and its myocardium were used for calculating maximum pairwise pixel grey level correlation.
(§3) 6-10 baseline images from before the appearance of adenosine effects were averaged to give a representative baseline image, and a similar number of images at peak adenosine effect were likewise averaged. The two thus-obtained averaged images were then subtracted and the difference was colour coded. […] The colour coding was selected to represent the range −4 dB (blue colour) to +4 dB (red colour).
Images were acquired as described in Example 1 and processed according to the method of Example 4. The normal myocardium was depicted with a homogeneous colour indicating a signal increase of some 3-4 dB.

The conditions of series [2]: in vivo; cited from earlier work.
Series [3] deals with myocardium. Briefly: Imaging in man: pulse inversion imaging of the heart with contrast agent and adenosine infusion. The conditions noted are these: adenosine i.v. infusion 140 μg/kg/min, apical 2-chamber view, Preparation 1 contrast agent. The class given is in vivo, human. Here is the method: A patient with an angiographically verified 80% left anterior descending arterial stenosis was given an intravenous injection of 1 ml of a perfluorobutane microbubble suspension prepared as in Preparation 1. The heart was imaged with an ATL HDI-5000 scanner and a P4-2 transducer, using ECG-gated (every second end-systole) pulse inversion imaging; the mechanical index was 0.6. The heart was imaged from an apical 2-chamber view. […] Intravenous infusion of adenosine at a rate of 140 μg/kg/min was then started, and a sequence of 30 images, of which 10 were before the onset of adenosine effects in the heart, were stored in digital format. The images were processed as in Example 4, but without the initial video grabbing steps.

Series [4] deals with myocardium. The series can be described thus: Open chest ultrasound imaging with partial coronary occlusion (snare on left anterior descending coronary artery). The class given is in vivo, dog. The conditions noted are these: for change in contrast effect in the myocardium, except in areas supplied by the stenotic artery: one minute after start of infusion. The method, then: The procedure of Example 1 was repeated except that an occluding snare was placed around the major branch of the left anterior descending coronary artery. An ultrasound transit time flow meter was applied to the same artery and the snare was adjusted to give a stable reduction in blood flow to about 75% of the normal value. Contrast agent and adenosine injections were then administered as in Example 1.
as §1, §2, §3
Images were acquired as described in Example 3 and processed according to the method of Example 4.
The procedure of Example 3 is repeated except that the bolus injection of adenosine is replaced with a pumpcontrolled infusion of dobutamine at a rate of 15 μg/kg/min.
The procedure of Example 3 is repeated except that the bolus injection of adenosine is replaced with a pumpcontrolled infusion of arbutamine at a rate of 0.4 μg/kg/min.

Series [5] has as its system left circumflex perfusion beds. The conditions noted are these: contrast agent perfluoropropane-enhanced sonicated dextrose albumin i.v., cited from earlier work.
Series [6] has as its system myocardium. Briefly: Closed chest ultrasound imaging of the heart with contrast agent, then adenosine bolus. It is filed as in vivo, dog. To be noted: Preparation 1 contrast agent.
From the text: The procedure of Example 1 was repeated with a closed chest dog, using a parasternal transducer position. The resulting ultrasound images were less homogeneous as regards signal intensities than the images obtained in Example 1, as a result of acoustic effects of the intact chest wall.
as §1, §2
6-10 baseline images from before the appearance of adenosine effects were averaged to give a representative baseline image, and a similar number of images at peak adenosine effect were likewise averaged. […]

Where [7] appears, read: adenosine 150 μg/kg i.v. bolus after Preparation 1 contrast agent.
Where [8] appears, read: blood flow reduced to about 75% of normal, adenosine 150 μg/kg i.v. bolus, Preparation 1 contrast agent.
Setting [9] is: following injection of adenosine, processed difference image.

For the compound `Nc1ncnc2c1ncn2[C@@H]1O[C@H](CO)[C@@H](O)[C@H]1O` [Adenosine, adenosine], in series [1] (setting [7]), the “change in echo intensity from the myocardium” value is “distinct general increase in echo intensity”, the “duration of the increase in echo intensity” value is ~15 s and the “time from adenosine injection to increase in echo intensity from the myocardium” value is 7 s. Also, the “signal increase in normal myocardium (processed difference image)” value in series [1] (open chest, peak adenosine effect versus baseline, Preparation 1 contrast agent) is 3-4 dB. In addition, in series [2], the blood pool half-life entry was “only a few seconds”. Moreover, in series [3], the “decrease in signal intensity in myocardial regions supplied by the stenotic artery” value was 1-2 dB and the “increase in signal intensity in normal regions of the myocardium” value is given as 2-3 dB. Moreover, in series [4] (setting [8]), the “change in contrast effect in all other areas of the myocardium” value is recorded as “increase” and the “change in contrast effect in tissue areas affected by the occlusion” value was “slight decrease in contrast effect”. In series [4] (setting [9]), the “decrease in signal intensity in myocardial tissue affected by the simulated coronary stenosis” value is reported as 1-3 dB and the “increase in signal intensity in normal myocardium” value is 2-3 dB. In addition, the “ratio of peak myocardial videointensities, adenosine stress compared to resting” value in series [5] (stenoses with diameter in excess of 70%) was 0.8-1.4. In addition, in series [5] (stenoses with diameter not exceeding 50%), the “ratio of peak myocardial videointensities, adenosine stress compared to resting” value is given as 1.8-2.1. For the same compound, in series [6] (parasternal transducer position), the “change in echo intensities after injection of adenosine” value is “general increase in echo intensities comparable to that observed in Example 1”. The “signal increase in normal myocardium (processed difference image)” value in series [6] (peak adenosine effect versus baseline) is 3-4 dB.
For `Oc1ccc(CCCCNC[C@H](O)c2ccc(O)c(O)c2)cc1` [arbutamine], the “change in contrast effect in the myocardium, except in areas supplied by the stenotic artery” value in series [4] (arbutamine infusion 0.4 μg/kg/min, Preparation 1 contrast agent) is given as “increase in contrast effect”.
Turning to `CC(CCc1ccc(O)cc1)NCCc1ccc(O)c(O)c1` (centres unmarked) [dobutamine], the “change in contrast effect in the myocardium, except in areas supplied by the stenotic artery” value in series [4] (dobutamine infusion 15 μg/kg/min, Preparation 1 contrast agent) is “increase in contrast effect”.
